Measurements: patent publication US11938136B2, “Compositions for treating spinal muscular atrophy” (Hoffmann-La Roche Inc., priority 2015, dated 2024)
Read-outs that look alike come from different tables or passages of the source.

What was measured:
[1] = system: splicing events and expression levels of genes; test: Transcriptional profiling analysis; format: cell-based
Excerpt: The specific function of STRN3, SLC25A17, and GGCT and consequences of their dysregulation have not been elucidated so far. These three genes are also consistently found to be affected at the higher dose (5-fold higher than the EC90), a dose used in order to illustrate the maximum effect of this compound. Splicing events of 11 genes, including the genes FoxM1 and MADD, were affected at the higher dose but not by the lower dose. FoxM1 and MADD have been described as being involved in cell cycle regulation and apoptosis, respectively.

[2] = system: SMNΔ7 mice; test: Neuromuscular connectivity and muscle atrophy in SMNΔ7 mice (immunohistochemistry); format: in vivo, mouse; settings: 0.1, 0.3, 1 mg/kg IP once per day, P3 to P14
Procedure: SMNΔ7 mice were treated with the compound of Example 20 from P3 to P14, and neuromuscular connectivity and muscle atrophy were assessed by immunohistochemistry. (A) vGlut1-positive proprioceptive inputs in L3-5 spinal cord. (B) Ventral motor axons in L3-5 spinal cord. (C) NMJ innervation onto longissimus muscle. (D) EDL muscle cross-sectional area. Data represent means SEM of 4-5 mice per group. *=p<0.05; **=p<0.01; ***=p<0.001 vs. vehicle-treated SMNΔ7 mice.
Lastly, the compound of Example 20 improves neuromuscular connectivity in a severe SMA mouse model in vivo. SMNΔ7 mice were treated from P3 to P14 by IP application of vehicle or 0.1, 0.3, 1 mg/kg Example 20 once per day. At P14, 1 hour after the last dose spinal cord and muscle tissues were processed for histological assessment.

[3] = system: SMN2 splicing; test: Ex vivo whole blood assay, SMN2 splicing; format: cell-based, human; settings: whole blood cells from healthy volunteers, 4 hours
Procedure: (§1) (A) SMN2 splicing in SMA Type 1 fibroblasts. (B) SMN protein in SMA Type 1 fibroblasts. (C) SMN protein in SMA Type 1 motor neurons. (D) SMN1 and SMN2 splicing in whole blood derived from HV. Fibroblasts from SMA Type 1 patients were cultured for 24 hours (A) or 48 hours (B); motor neurons from SMA Type 1 patient iPSCs (induced Pluripotent Stem Cells) were cultured for 72 hours (C) and whole blood cells from healthy volunteers (HV) for 4 hours (D) in the presence of the compound of Example 20. SMN splicing was assessed by RT-PCR, and SMN protein levels were assessed by homogenous time-resolved fluorescence (HTRF) in fibroblast lysates, and by immunostaining for SMN in motor neurons. Data represent means standard error (SEM) of 3 evaluations per data point and are expressed as fold change vs. untreated controls. To further assess SMN2 splicing as a potential blood biomarker, an ex vivo assay was developed using whole blood cells from healthy volunteers in which SMN1 and SMN2 splicing was assessed after 4 hours treatment with the compound of Example 20 (at this time point, maximal splicing changes were achieved).

[4] = system: SMN protein; test: SMN protein in spinal motor neurons derived from SMA patient iPSCs (immunostaining); format: cell-based, human
Procedure: as §1, with “controls.” for “controls. To further assess SMN2 splicing as a potential blood biomarker, an ex vivo assay was developed using whole blood cells from healthy volunteers in which SMN1 and SMN2 splicing was assessed after 4 hours treatment with the compound of Example 20 (at this time point, maximal splicing changes were achieved).”

[5] = system: FoxM1; test: Alternative splicing of FoxM1 in SMA Type I patient fibroblasts (RT-qPCR); format: cell-based; settings: Homo sapiens, Fibroblast, 24 hours
Procedure: FIG. 5. Alternative Splicing of FoxM1 in vitro SMA Type I patient fibroblasts were treated with the compound of Example 20 for 24 hours, and FoxM1 full-length (FL) and exon 9-lacking (Δ9) mRNAs were analyzed by RT-qPCR. Data represent means SEM of 6 repetitions and are expressed as fold change vs. untreated controls.
FoxM1, a gene alternatively spliced by other splicing modifier compounds, encodes a cell cycle regulator. […] 2007 February; 3(1):1-3. Laoukili et al, Biochim Biophys Acta. 2007 January; 1775(1):92-102]. […] Increased expression of the FoxM1A isoform, together with decreased expression of FoxM1 isoforms lacking exon 9, has the capability to disturb and inhibit cell cycle progression if splicing changes are at a level that is biologically significant. Thus, the compound of Example 20 acts in a similar way on the SMN2 and FoxM1 splicing machinery, but with opposing outcomes with regard to protein function and at varying degrees. The EC50 for MADD, a gene also identified as affected by splicing modifiers including the compound of Example 20 at high concentrations and known to be involved in apoptotic processes, is not known.

[6] = system: SMN protein; test: SMN protein in brain and quadriceps muscle of SMNΔ7 mice (HTRF); format: in vivo, mouse
Procedure: (A) SMN protein in brains of C/C-allele mice. (B) SMN protein in brains of SMNΔ7 mice. (C) SMN protein in quadriceps muscle of C/C-allele mice. (D) SMN protein in quadriceps muscle of SMNΔ7 mice. C/C-allele mice and SMNΔ7 mice were treated with the compound of Example 20. One hour after the last dose, brains and quadriceps muscles were collected and levels of SMN protein were assessed by HTRF. Data represent means SEM of 5-6 animals per group and are expressed as fold change vs. vehicle-treated controls. *=p<0.05, **=p<0.01, ***=p<0.001 vs. untreated controls.
In vivo, the compound of Example 20 increases SMN protein in the brain and muscle in the severe SMNΔ7 model and the milder C/C-allele model, carrying human SMN2 transgenes. Adult C/C-allele mice were treated for 10 days with vehicle or the compound of Example 20 (1, 3 or 10 mg/kg PO, daily), and 3 days old (P3) SMNΔ7 mice were treated for 7 days with vehicle or the compound of Example 20 (0.1, 0.3, 1 or 3 mg/kg IP, daily). […] In SMNΔ7 mice, the SMN protein increase was only partial in both brain and muscle, reaching approximately 43% (brain) and 55% (muscle) of protein levels in heterozygous mice.

SMILES: Cc1cn2nc(-c3cc(=O)n4cc(N5CCNC6(CC6)C5)ccc4n3)cc(C)c2n1 [Example 20, 7-(4,7-diazaspiro[2.5]octan-7-yl)-2-(2,8-dimethylimidazo[1,2-b]pyridazin-6-yl)pyrido[1,2-a]pyrimidin-4-one]
- number of genes whose expression levels were changed (p<0.01) ([1]; 121 nM dose): 0
- genes whose splicing events were affected ([1]; 121 nM, compared to control): STRN3, SLC25A17 and GGCT
- number of genes whose splicing events were affected at the higher dose but not by the lower dose ([1]; higher dose, 5-fold higher than the EC90, including FoxM1 and MADD): 11
- EC90 ([1]; read-out: EC90 (therapeutically relevant concentration)): 121 nM
- fiber size in extensor digitorum longus (EDL) muscles relative to vehicle-treated SMNΔ7 mice [2]: dose-dependently and significantly increased
- number of motor axons relative to vehicle-treated SMNΔ7 mice [2]: dose-dependently and significantly increased
- number of vGlut1 inputs relative to vehicle-treated SMNΔ7 mice [2]: dose-dependently and significantly increased
- percentage of fully innervated NMJs relative to vehicle-treated SMNΔ7 mice ([2]; longissimus muscle): dose-dependently and significantly increased
- concentration at which effects on splicing were evident [3]: above 100 nM
- effect on SMN2 splicing [3]: dose-dependently altered towards inclusion of exon 7
- maximal increase in SMN protein above untreated cells ([4]; motor neurons from SMA patient iPSCs): 60-80%
- EC50 ([4]; spinal motor neurons from SMA patient iPSCs, 72 hours): 182 ± 114 nM
- EC50 ([5]; read-out: EC50 for FoxM1 FL mRNA): 67 ± 32 nM
- EC50 ([5]; read-out: EC50 for FoxM1 Δ9 mRNA): 139 ± 43 nM
- SMN protein in brain, of protein levels in heterozygous mice ([6]; SMNΔ7 mice): approximately 43%
- SMN protein in muscle, of protein levels in heterozygous mice ([6]; SMNΔ7 mice): ~55%
- maximum increase of SMN protein levels in brain and muscle tissue ([6]; neonatal SMNΔ7 mice, 1-3 mg/kg IP daily, 7 days from P3): 2-3 fold
